≈ marks a conversion by molar mass, not a printed value. Like-named read-outs stand apart in the source and are kept apart here. Numbered stars: 1 amine (or outer) side, 2 acyl side, 3 side chain; on linkers, the order of the positions; unused ones are H or OH. Bridge positions count the residues as written; N and C are the ends. Square brackets hold non-standard residues; d marks the D form. Peptide text beside a SMILES is read from it. * marks the point of attachment. X1 = C[C@@H](O)[C@@H](CS[*:1])N[*:2]; dGly(nOct) = CCCCCCCC[C@@H](N)C(=O)O; Hica(2S) = CC(C)C[C@H](O)C(=O)O; Octanoyl = CCCCCCCC(=O)*; Dab = NCC[C@H](N)C(=O)O
Experiments:
E. coli MB1410 = test: microbe, parasite or virus in culture; format: cell-based; conditions: for antibacterial activity (MIC): MB1410
Protocol: (§1) The antibacterial activity of the polymyxin lipopeptides was measured at ISGlobal following the microdilution test to determine the Minimal Inhibitory Concentrations (MIC) in sterile 96-well polypropilene plates. The concentration range was 32 a […] in Iso-Sensitest broth (Oxoid, ThermoFisher). The results were carried out in triplicate and the highest MIC is the one shown. Bacterial strains were grown in blood agar plates at 37° C. for 17 h. Fresh colonies were used to prepare a McFarland 0.5 solution that was finally added to the plates at 1 to 100 dilution
(§2) Samples of sensitive and multi-drug resistant bacteria were: E. coli ATCC 25922 E. coli MB1410; K. pneumoniae MB674; P. aeruginosa ATCC 27853; P. aeruginosa 36A.

E. coli ATCC 25922 = test: microbe, parasite or virus in culture; format: cell-based; conditions: for MIC: resistance profile of strain E. coli ATCC 25922, Table 3; for antibacterial activity (MIC): ATCC 25922
Protocol: as §1, §2

P. aeruginosa 36A = test: microbe, parasite or virus in culture; format: cell-based; conditions: for antibacterial activity (MIC): 36A
Protocol: as §1, §2

P. aeruginosa ATCC 27853 = test: microbe, parasite or virus in culture; format: cell-based; conditions: for MIC: resistance profile of strain P. aeruginosa ATCC 27853, Table 3; for antibacterial activity (MIC): ATCC 27853
Protocol: as §1, §2

K. pneumoniae MB674 = format: cell-based; conditions: MB674
Protocol: as §1, §2

Swiss CD-1 female mice = test: Nephrotoxicity study, histopathological scoring of kidney lesions; format: in vivo; set-up: key to Group Score (GS): mean of per-animal summed 0-4 lesion scores; higher = more nephrotoxic; key to Animal Score (AS), Partial AS: sum of 0-4 lesion parameter scores; higher = more nephrotoxic; conditions: for Animal Score (AS), Partial AS: sum over all mice
Protocol: Swiss CD-1 female mice weighing approximately 20-24 g (JANVIER Labs) were used, housed in an individually ventilated cage system under specific pathogen-free conditions, and water and food supplied ad libitum. This study plan and the conduct of the study were subjected to review by the Scientific Park of Barcelona Ethical Review Process with the current study procedure Code CEEA (AR) 9377-P2. Mice were administered at a dose of 12 mg/Kg every 2 hours for a total of 6 administrations (total dose 72 mg/Kg), unless otherwise stated. After 20 h, animals were anesthesized with isoflurane, kidneys extracted and prepared for histopathological evaluation, and finally animales were sacrificed. Kidney lesions (tubule dilation, necrosis, tubule casts, cell vacuolization, cell desquamation, and cell swelling) were quantified by microscopical observation (see for instance, Roberts, ACS Infect. Dis., 2015, 1, 568). Each one of these parameters was scored with values from 0 to 4 for each animal, as a global result of observations in kidney. Partial scores have been added up to obtain a final score for each animal (Animal Score, AS). The mean of animal score has been obtained to define the Group Score (GS). The higher the score, the more nephrotoxic a compound is. The nephrotoxicity score has been determined as according to the following table of approximated values: […]

[1] = Escherichia coli, ATCC25922, read-out: MIC
[2] = Pseudomonas aeruginosa, ATCC27853, read-out: MIC
[3] = Table 6, 12 mg/Kg every 2 hours × 6, subcutaneous, total 72 mg/Kg
[4] = Table 6, mean of animal scores, 12 mg/Kg every 2 hours × 6, subcutaneous, total 72 mg/Kg
[5] = Table 6, sum of mouse scores, 12 mg/Kg every 2 hours × 6, subcutaneous, total 72 mg/Kg
[6] = Table 7, 8 mg/Kg every 2 hours × 6, total 48 mg/Kg

SMILES: NCC[C@H](O)C(=O)N[C@@H]1C[C@H](N)[C@@H](O[C@H]2O[C@H](CN)[C@@H](O)[C@H](O)[C@H]2O)[C@H](O)[C@H]1O[C@H]1O[C@H](CO)[C@@H](O)[C@H](N)[C@H]1O [Ak, Amikacin]
- MIC (E. coli MB1410; Escherichia coli, resistance profile of strain E. coli MB1410, Table 3, read-out: MIC): 6 µg/mL (≈ 10.2 µM)
- MIC (E. coli ATCC 25922; [1]): 2 µg/mL (≈ 3.42 µM)
- MIC (P. aeruginosa 36A; Pseudomonas aeruginosa, resistance profile of strain P. aeruginosa 36A, Table 3, read-out: MIC): 2 µg/mL (≈ 3.42 µM)
- MIC (P. aeruginosa ATCC 27853; [2]): 4 µg/mL (≈ 6.83 µM)

SMILES: CC(C)(O/N=C(\C(=O)N[C@@H]1C(=O)N2C(C(=O)[O-])=C(C[n+]3ccccc3)CS[C@H]12)c1csc(N)n1)C(=O)O [CAZ, Ceftacidime]
- MIC (E. coli ATCC 25922): 0.25 µg/mL (≈ 0.457 µM)
- MIC (P. aeruginosa ATCC 27853): 0.5 µg/mL (≈ 0.915 µM)

SMILES: CO/N=C(\C(=O)N[C@@H]1C(=O)N2C(C(=O)O)=C(COC(C)=O)CS[C@H]12)c1csc(N)n1 [CTX, Cefotaxime]
- MIC (E. coli ATCC 25922; [1]): 0.5 µg/mL (≈ 1.1 µM)

SMILES: O=C(O)c1cn(C2CC2)c2cc(N3CCNCC3)c(F)cc2c1=O [Cip, Ciprofloxacin]
- MIC (E. coli ATCC 25922; [1]): 0.06 µg/mL (≈ 0.181 µM)
- MIC (P. aeruginosa ATCC 27853; [2]): 0.25 µg/mL (≈ 0.754 µM)

SMILES: CCCCCCCC[C@@H](N)C(=O)N[C@H](C(=O)N[C@@H](CCN)C(=O)N[C@H]1CSSC[C@H]([C@@H](C)O)NC(=O)[C@H](CCN)NC(=O)[C@H](CCN)NC(=O)[C@H](CC(C)C)NC(=O)[C@@H](Cc2ccccc2)NC(=O)[C@H](CCN)NC1=O)[C@@H](C)O [Example 5, DAdec-Thr-Dab-cyclo(S-S)[Cys-Dab-DPhe-Leu-Dab-Dab-Ttr]] (H-[dGly(nOct)]T[Dab]C[Dab][dF]L[Dab][Dab]; linker 4-C via X1; N-terminus assumed)
- antibacterial activity (MIC) (K. pneumoniae MB674): 1 µg/mL
- Mice found dead (Swiss CD-1 female mice; [3]): None
- Group Score (GS) (Swiss CD-1 female mice; [4]): 0.4
- Cell desquamation, Partial AS (Swiss CD-1 female mice; [5]): 0
- Cell vacuolization, Partial AS (Swiss CD-1 female mice; [5]): 0
- Cloudy swelling, Partial AS (Swiss CD-1 female mice; [5]): 3
- Tubular casts, Partial AS (Swiss CD-1 female mice; [5]): 0
- Tubular dilation, Partial AS (Swiss CD-1 female mice; [5]): 0
- Tubular necrosis, Partial AS (Swiss CD-1 female mice; [5]): 0
- Animal Score (AS), Partial AS (Swiss CD-1 female mice; [3]): 3
- AS, Partial AS (Swiss CD-1 female mice; [6]): 0
- Cell vacuolization, Partial AS (Swiss CD-1 female mice; [6]): 0
- Cloudy swelling, Partial AS (Swiss CD-1 female mice; [6]): 0
- Group Score (GS) (Swiss CD-1 female mice; [6]): 0
- Mice found dead (Swiss CD-1 female mice; [6]): None
- Tubular casts, Partial AS (Swiss CD-1 female mice; [6]): 0
- Tubular dilation, Partial AS (Swiss CD-1 female mice; [6]): 0
- Tubular necrosis, Partial AS (Swiss CD-1 female mice; [6]): 0
- antibacterial activity (MIC) (E. coli MB1410): 1 µg/mL
- antibacterial activity (MIC) (E. coli ATCC 25922): 1 µg/mL
- antibacterial activity (MIC) (P. aeruginosa 36A): 2 µg/mL
- antibacterial activity (MIC) (P. aeruginosa ATCC 27853): 2 µg/mL

SMILES: CCCCCCCC[C@@H](N)C(=O)N[C@H](C(=O)N[C@@H](CCN)C(=O)N[C@H]1CSSC[C@H]([C@@H](C)O)NC(=O)[C@H](CCN)NC(=O)[C@H](CCN)NC(=O)[C@H](CC(C)C)NC(=O)[C@@H](CC(C)C)NC(=O)[C@H](CCN)NC1=O)[C@@H](C)O [Example 6, DAdec-Thr-Dab-cyclo(S-S)[Cys-Dab-DLeu-Leu-Dab-Dab-Ttr]] (H-[dGly(nOct)]T[Dab]C[Dab][dL]L[Dab][Dab]; linker 4-C via X1; N-terminus assumed)
- antibacterial activity (MIC) (K. pneumoniae MB674): 0.5 µg/mL
- Mice found dead (Swiss CD-1 female mice; [3]): 2
- Group Score (GS) (Swiss CD-1 female mice; [4]): 1
- Cell desquamation, Partial AS (Swiss CD-1 female mice; [5]): 0
- Cell vacuolization, Partial AS (Swiss CD-1 female mice; [5]): 0
- Cloudy swelling, Partial AS (Swiss CD-1 female mice; [5]): 5
- Tubular casts, Partial AS (Swiss CD-1 female mice; [5]): 1
- Tubular dilation, Partial AS (Swiss CD-1 female mice; [5]): 0
- Tubular necrosis, Partial AS (Swiss CD-1 female mice; [5]): 0
- Animal Score (AS), Partial AS (Swiss CD-1 female mice; [3]): 6
- AS, Partial AS (Swiss CD-1 female mice; [6]): 1
- Cell vacuolization, Partial AS (Swiss CD-1 female mice; [6]): 0
- Cloudy swelling, Partial AS (Swiss CD-1 female mice; [6]): 1
- Group Score (GS) (Swiss CD-1 female mice; [6]): 0.2
- Mice found dead (Swiss CD-1 female mice; [6]): None
- Tubular casts, Partial AS (Swiss CD-1 female mice; [6]): 0
- Tubular dilation, Partial AS (Swiss CD-1 female mice; [6]): 0
- Tubular necrosis, Partial AS (Swiss CD-1 female mice; [6]): 0
- antibacterial activity (MIC) (E. coli MB1410): 0.5 µg/mL
- antibacterial activity (MIC) (E. coli ATCC 25922): 2 µg/mL
- antibacterial activity (MIC) (P. aeruginosa 36A): 0.5 µg/mL
- antibacterial activity (MIC) (P. aeruginosa ATCC 27853): 1 µg/mL

SMILES: CCCCCCCC(=O)N[C@@H](CCN)C(=O)N[C@H](C(=O)N[C@@H](CCN)C(=O)N[C@H]1CSSC[C@H]([C@@H](C)O)NC(=O)[C@H](CCN)NC(=O)[C@H](CCN)NC(=O)[C@H](CC(C)C)OC(=O)[C@@H](CC(C)C)NC(=O)[C@H](CCN)NC1=O)[C@@H](C)O [Example 7, Octanoyl-Dab-Thr-Dab-cyclo(S-S)[Cys-Dab-DLeu-OLe-Dab-Dab-Ttr]] (Octanoyl-[Dab]T[Dab]C[Dab][dL][Hica(2S)][Dab][Dab]; linker 4-C via X1)
- antibacterial activity (MIC) (K. pneumoniae MB674): 1 µg/mL
- antibacterial activity (MIC) (E. coli MB1410): 4 µg/mL
- antibacterial activity (MIC) (E. coli ATCC 25922): 8 µg/mL
- antibacterial activity (MIC) (P. aeruginosa 36A): 4 µg/mL
- antibacterial activity (MIC) (P. aeruginosa ATCC 27853): 2 µg/mL
